Literature values, collected in article PMC3848067 (Acta Naturae, 2013).
Read-outs that look alike come from different tables or passages of the source.

Columns and labels:
MT-4 cells = conditions: MT-4 cell culture; cited from earlier work
HIV infection = conditions: cited from earlier work
HIV = conditions: cited from earlier work
mice = conditions: intraperitoneal administration to mice; cited from earlier work
HIV-1 [1] = conditions: MT-4 cell culture; cited from earlier work
HIV-1 [2] = conditions: MT-4, CEM-SS and CEM-X174 cell lines; cited from earlier work
HIV-1 [3] = conditions: cell cultures C8 and JM; cited from earlier work
IIIB strain of HIV = IIIB strain of HIV in blood mononuclear cells; cited from earlier work
HXB2 strain of HIV = HXB2 strain of HIV in blood mononuclear cells; cited from earlier work
[4] = cited from earlier work
[5] = canine whole blood at 37°С; cited from earlier work
[6] = set-up: method as in PMID 20380483; conditions: after oral administration of the named drug; cited from earlier work
[7] = dogs, value for the tested compound (2 or its metabolite AZT), cited from earlier work
[8] = rabbits, single oral dose of the named compound equivalent to 200 mg of AZT/kg; cited from earlier work
[9] = metabolite AZT after oral phosphonate 2, 20 mg/kg, rats; cited from earlier work
[10] = dogs, cited from earlier work; for tmax of AZT: oral phosphonate 2 capsules 600 mg daily
[11] = cited from earlier work; remark: listed apart in the source
[12] = single oral dose of capsules of 2, 10 mg/kg
[13] = single oral dose of capsules of 2, 20 mg/kg
[14] = single oral dose of capsules of 2, 40 mg/kg
[15] = compound 2 orally 600 mg for 7 days, 24 h intervals, day 7

Structure (SMILES): Cc1cn(C2CC(N=[N+]=[N-])C(CO[PH](=O)[O-])O2)c(=O)[nH]c1=O.[Na+] (centres unmarked) [Compound 1, sodium salt of AZT 5’-H-phosphonate]
- toxicity as compared to AZT (MT-4 cells): lower
- therapeutic efficacy (HIV infection; HIV-infected patients receiving HAART): significant therapeutic efficacy
- tolerability (HIV infection; adults and children): well tolerated in both adults and children
- therapeutic effect (reduction of viral stress, immunorestoration, decrease in risk of concomitant diseases) (HIV infection; clinical practice): stable positive therapeutic effect
- adverse effects typically observed with AZT (vomiting, nausea, headache, diarrhea, myalgia, anemia, thrombocytopenia, neutrocytopenia) (HIV infection; during phosphazide therapy): No adverse effects
- safety in patients with opportunistic infections (HIV infection; patients with tuberculosis and liver pathologies of viral etiology): safe for patients with tuberculosis and liver pathologies of viral etiology
- penetration of AZT through the placenta (HIV; AZT from phosphazide): capable of efficiently penetrating the placenta
- effect on course of pregnancy, fetal maturity or viability (HIV; HIV-infected women): does not affect
- prevention of vertical transmission of HIV (HIV; during pregnancy, combined with Retrovir or Nevirapine during childbirth and postnatal period): efficiently prevents vertical transmission of HIV
- mean lethal dose (LD50) (mice): 2300 mg/kg
- anti-HIV activity (HIV-1 [1]): moderate
- selectivity index compared to AZT (HIV-1 [1]): higher than that of AZT
- activity compared to AZT (HIV-1 [2]): lower than that of AZT by almost an order of magnitude
- anti-HIV activity, times higher vs. that of AZT (HIV-1 [3]): 10–20 times
- selectivity index, times higher than that of AZT (IIIB strain of HIV): 1.5 times
- selectivity index, times higher than that of AZT (HXB2 strain of HIV): 15 times
- half-life in 100% human blood serum [4]: over 6 h
- Т1/2 in canine whole blood [5]: 3 h

Structure (SMILES): Cc1cn([C@H]2C[C@H](N=[N+]=[N-])[C@@H](CO)O2)c(=O)[nH]c1=O [AZT, 3’-azido-3’-deoxythymidine]
- Cmax of AZT [6]: ~1200 ng/mL
- tmax of AZT [6]: 0.5 to 0.8 h
- Cmax [7, 12]: 360 ± 240 ng/mL
- Cmax/AUC [7, 12]: 0.119 ± 0.033 h⁻¹
- MRT [7, 12]: 8.90 ± 5.34 h
- t1/2 [7, 12]: 4.57 ± 1.46 h
- tmax [7, 12]: 4.7 ± 1.0 h
- Cmax [7, 13]: 690 ± 490 ng/mL
- Cmax/AUC [7, 13]: 0.107 ± 0.023 h⁻¹
- MRT [7, 13]: 12.0 ± 2.6 h
- t1/2 [7, 13]: 9.7 ± 4.3 h
- tmax [7, 13]: 5.0 ± 1.7 h
- Cmax [7, 14]: 980 ± 560 ng/mL
- Cmax/AUC [7, 14]: 0.100 ± 0.016 h⁻¹
- MRT [7, 14]: 12.2 ± 1.4 h
- t1/2 [7, 14]: 7.0 ± 2.5 h
- tmax [7, 14]: 6.0 ± 1.3 h
- AUC of AZT [8]: 88500 ± 25500 ng·h/mL
- Cmax of AZT [8]: 39640 ± 4240 ng/mL
- MRT of AZT [8]: 2.10 ± 0.30 h
- t1/2 of AZT [8]: 2.13 ± 0.71 h
- tmax of AZT [8]: 1.0 h
- AUC 0-t [9]: 2270 ng·h/mL
- MRT [9]: 6.54 h
- tmax [9]: 4 h
- Сmax [9]: 0.4 mg/L
- С0 of AZT in plasma [10, 15]: 0.17 ± 0.07 mg/L
- Сmin of AZT in plasma [10, 15]: 0.17 ± 0.07 mg/L
- tmax of AZT ([10]; day 1): 2.7 h
- tmax of AZT ([10]; day 7): 4 h
- half-life period (blood plasma) ([11]; AZT concentration after oral administration of phosphonate 2): 3.9 h
- detection of AZT in organs and tissues (liver, kidneys, spleen, lungs, skeletal muscles, mesentery) ([11]; metabolite of phosphonate 2): detected in all these organs and tissues
